Experiment: Approximate solubility at ambient temperature
Type: physicochemical
Description: Approximate solubility values were measured for the as-received material at ambient temperature. […] The approximate solubility values were considered in the design of form screen experiments.

- approximate solubility (MTBE, toluene, water, and select solvent mixtures): Limited to intermediate solubility
- approximate solubility (heptane): low solubility
- approximate solubility (most of the organic solvents tested): high solubility
Compound: CC(C)n1nccc1-c1ncccc1CO [compound (3)]
